Experimental data as given in patent US20090111104A1, “Method for Monitoring Hydrolytic Activity” (Fluorotechnics Pty Limited, priority 2005, published 2009).

B1: papain: Non-specific cysteine protease, Sigma-Aldrich P4762 (protein, UniProt P00784 134-345, looked up)
Papain: IPEYVDWRQKGAVTPVKNQGSCGSCWAFSAVVTIEGIIKIRTGNLNEYSEQELLDCDRRSYGCNGGYPWSALQLVAQYGIHYRNTYPYEGVQRYCRSREKGPYAAKTDGVRQVQPYNEGALLYSIANQPVSVVLEAAGKDFQLYRGGIFVGPCGNKVDHAVAAVGYGPNYILIKNSWGTGWGENGYIRIKRGTGNSYGVCGLYTSSFYPVKN

Experiments:
BSA [1] = biological target: T1, BSA (Bos taurus, UniProt P02769); test: Real-time monitoring of chymotrypsin digestion of BSA using epicocconone; type: biochemical, bovine; conditions: bicine pH 7.8, 30° C., chymotrypsin 1:30
T1 construct: purchased Sigma-Aldrich A3059
Method: • 1. Chymotrypsin digestion was carried out in bicine buffer. • 2. BSA was prepared in 10 mg/mL in 50 mM bicine buffer. • 3. One hundred microliter of the BSA sample was used for chymotrypsin digestion.
• 1. The BSA sample (100 μL) was reduced by adding 5 μL of DTT stock and heating (80° C.) for 10 min. • 2. The sample was alkylated by adding the iodoacetamide (4 μL) stock at room temperature for 45 min-1 hr. • 3. The remaining iodoacetamide of the sample was neutralized by adding DTT (20 μL) and incubating room temp for 45 min-1 hr.
• 1. The reduced and denatured BSA sample from 2.2 was diluted 10-fold in 50 mM bicine buffer (25 μL+225 μL bicine buffer). BSA molar concentration was calculated to be approx. 6 μM. • 2. One hundred microliter of the sample (step 1) was prepared in duplicates and added to a microtiter plate. Controls included a bicine-based digestion buffer, a chymotrypsin sample only and an undigested BSA sample (no chymotrypsin). • 3. Epicocconone stock solution was diluted 100-fold in 50 mM bicine and 100 μL added to each well. The final concentration epicocconone was 12 μM. At this point in time, it required approximately 10 min to get appropriate FluoStar setting conditions. • 4. 2 μL of CaCl2 was added • 5. […] Fluorescence development was monitored in real time every 2 minutes up to 6 hours using FluoStar (Ex/Em=540/630−12). […]

BSA [2] = biological target: T1, BSA; test: SDS-PAGE validation of BSA proteolysis in the presence of different fluorophores (Example 7); type: biochemical, bovine; conditions: after 120 minutes
Source text: The normalised data were used for Prism analysis for obtaining the rate constants. In each case, the protein with fluorophore (open squares) is fitted to a single phase exponential decay (Y=span*exp(−kX)+plateau) and the value for k used as the fixed value for k1 in a two phase exponential decay (Y=span1*exp(−k1X)+span2*exp(−k2X)+plateau) for the protein plus papain (open circles). Through this method it was possible to measure the rate constants for hydrolysis and predict the time point for complete hydrolysis. […] It can be seen from this figure that the bands associated with the protein have disappeared after 120 minutes and that only a faint band for residual papain or trypsin can be seen. In some cases there are also some larger peptide fragments remaining after digestion that are resistant to further hydrolysis.

T1 sequence (P02769 25-607): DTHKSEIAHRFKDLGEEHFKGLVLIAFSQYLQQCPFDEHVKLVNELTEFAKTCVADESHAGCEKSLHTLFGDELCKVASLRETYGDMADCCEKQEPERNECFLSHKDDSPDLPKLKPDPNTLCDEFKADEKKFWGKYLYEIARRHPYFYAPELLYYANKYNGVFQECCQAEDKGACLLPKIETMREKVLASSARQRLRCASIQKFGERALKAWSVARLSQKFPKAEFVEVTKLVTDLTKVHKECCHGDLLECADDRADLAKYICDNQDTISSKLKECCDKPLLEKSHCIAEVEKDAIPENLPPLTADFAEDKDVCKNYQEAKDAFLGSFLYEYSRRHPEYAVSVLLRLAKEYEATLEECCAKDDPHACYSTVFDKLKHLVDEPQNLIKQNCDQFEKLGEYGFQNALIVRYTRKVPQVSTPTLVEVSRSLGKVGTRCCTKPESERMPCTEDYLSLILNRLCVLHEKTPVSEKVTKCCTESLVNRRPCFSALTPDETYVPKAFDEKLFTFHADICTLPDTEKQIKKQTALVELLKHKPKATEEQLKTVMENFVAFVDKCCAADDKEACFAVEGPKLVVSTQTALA

| Molecule | apparent first order rate constant (BSA [1]) [min⁻¹] | digestion of BSA by SDS-PAGE (BSA [2]) |
| --- | --- | --- |
| chymotrypsin | 0.0447 | – |
| B1 | – | complete digestion |
